Four compounds from US11591298B2, “Bisaminoquinoline compounds, pharmaceutical compositions prepared therefrom and their use” (THE TRUSTEES OF THE UNIVERSITY OF PENNSYLVANIA, priority 2011, dated 2023) can be followed below.

Series [1] has as its system mice. The conditions noted are these: daily i.p. for 48 hours; HCQ 60 mg/kg, Lys05 76 mg/kg. The method, then: Lys05, the trihydrochloride salt of Lys01 was synthesized to enhance aqueous solubility and to enable in vivo studies. […] To investigate the safety of Lys05 and its in vivo effects on autophagy, c8161 xenografts matched for tumor size were treated with intraperitoneal (i.p.) daily PBS, or equimolar doses of HCQ or Lys05 (HCQ 60 mg/kg (138 nmoles/g), Lys05 76 mg/kg (138 nmoles/g)) for 48 hours. […] After 48 hours of treatment mice were euthanized, and tumors were processed for electron microscopy (EM).

For series [2] the following is noted: human, 24 h, 10 μM. Here is the method: FIGS. 11A, 11B, 11C, 11D. […] (11B) Concentrations of HCQ or Lys05 in cells and tumor whole cell and lysosomal homogenates. […] Lysotracker puncta (red) per cell was scored for three high powered fields. Blue: nuclear DAPI staining. Data presented is mean+SEM (11D) Fluorescence imaging of c8161 cells treated as indicated for 24 hours and stained with acridine orange (AO): orange: Aggregated AO, green: diffuse AO
FIG. 12. High performance liquid chromatography tandem mass spectrometry assay for HCQ and Lys05. 1205Lu cells (24 hours) and 1205Lu tumors (14 days). WC: Whole cell homogenate L: Lysosomal subfraction HCQ: Hydroxychloroquine

Series [3] is classed as cell-based. The settings on record: within 30 minutes.
Series [4] in a line: Acridine orange staining of acidic vesicles. In kind it is cell-based. The settings on record: 24 hours; dose range.
Series [5] relates to LN229 GFP-LC3 cells. In words: GFP-LC3 puncta imaging in LN229 GFP-LC3 cells. It is filed as cell-based, human. The conditions noted are these: within 4 hours.
Series [6] has as its system LN229 GFP-LC3 cells. In words: Bafilomycin clamp experiment (LC3 immunoblotting). The conditions noted are these: 24 hours; HCQ 10 μM, Lys01 10 μM, rapamycin. In kind it is cell-based, human. The method, then:
FIGS. 4A, 4B, 4C, 4D. Autophagy inhibition and cytotoxicity of Lys01 compared to HCQ (4A) Representative images of LN229 GFP-LC3 cells treated as indicated for 4 hours. White arrows: small puncta; red arrows: dense puncta. Graphs show mean+/−SEM puncta/cell. (4B) Representative electron micrographs of LN229-GFP-LC3 cells treated (4 hours) with DMSO, HCQ 10 μM, or Lys01 10 μM Arrows: Autophagic vesicles. (4C) LC3 immunoblotting of LN229 cells treated for 24 hours an indicated; calculated ratio of LC3II/LC3I ratios for bafilomycin versus control co-treatment. Above the dashed line indicates an autophagy inducer or control, below the dashed line indicated an autophagy inhibitor. (4D) MTT assay (72 hours) for 4 cell lines. Red: Lys01, Blue: Lys02, Purple: Lys03 Green: Lys04 Orange: HCQ. Values presented are means+/−SEM with 5 replicates per treatment.
To further characterize the effects of Lys01 on autophagy, LN229 GFP-LC3 cells were treated with Lys01 or HCQ (FIG. 4A). […] Electron micrographs of LN229 GFP-LC3 cells treated with DMSO, HCQ, or Lys01 further characterized the significant morphological difference in the size and number of vesicles produced by blockade of autophagy with these agents (FIG. 4B). Thus, Lys01 produces morphological changes more pronounced than HCQ, a known lysosomal inhibitor, at 10-fold lower concentrations. […]

Series [7] concerns 1205Lu xenografts. In words: 1205Lu xenograft antitumor activity (14 days). It is filed as in vivo, nude mice. The conditions noted are these: end of 14 days of treatment; HCQ 60 mg/kg, Lys05 76 mg/kg i.p. 3/5 days.
Series [8] relates to LN229 (glioma), 1205Lu (melanoma), HT-29 (colon) and c8161 (melanoma) cells. In words: MTT assay (72 hours) in 4 cell lines. The settings on record: range over the 4 cell lines tested. In kind it is cell-based. The method, then: FIGS. 4A, 4B, 4C, 4D. […] White arrows: small puncta; red arrows: dense puncta. Graphs show mean+/−SEM puncta/cell. (4B) Representative electron micrographs of LN229-GFP-LC3 cells treated (4 hours) with DMSO, HCQ 10 μM, or Lys01 10 μM Arrows: Autophagic vesicles. (4C) LC3 immunoblotting of LN229 cells treated for 24 hours an indicated; calculated ratio of LC3II/LC3I ratios for bafilomycin versus control co-treatment. […] (4D) MTT assay (72 hours) for 4 cell lines. Red: Lys01, Blue: Lys02, Purple: Lys03 Green: Lys04 Orange: HCQ. Values presented are means+/−SEM with 5 replicates per treatment.
The MTT assay was used to assess viable cells at 72 hours.
In general terms: Tetrazolium assays rely on reduction of a dye to a coloured formazan, in cell work by metabolically active cells.

Series [9] deals with LC3II/LC3I ratio in LN229 cells. In words: LC3 immunoblotting (LC3II/LC3I ratio) in LN229 cells. In kind it is cell-based, human. The conditions noted are these: 4 hours. The method, then:
FIG. 3. Effects of Lys01-Lys04 on LC3 immunoblotting Immunoblotting and quantification of LC3II/LC3I ratio in lysates from LN229 cells treated for 4 hours. The graphs show (mean+/−SD) LC3II/LC3I ratios of each treatment normalized to the LC3II/LC3I ratio of control treated cells for each experiment.
LN229 (human glioblastoma) were treated with Lys01 and derivatives Lys02, Lys03, Lys04, HCQ and CQ. […] LC3 is a ubiquitin-like protein which exists as an unconjugated form (LC3I) or conjugated to AV membranes (LC3II) (25). The ratio of LC3II/LC3I reflects the accumulation of AV in cells, and therefore effective autophagy inhibition.

Read-outs that look alike come from different tables or passages of the source.

What is called IC50 is the concentration that inhibits the measured activity by half. A low value points to greater potency in that assay. On to `CCN(CCO)CCCC(C)Nc1ccnc2cc(Cl)ccc12` (stereo not shown) [HCQ, hydroxychloroquine, reference compound], for which the mortality entry in series [1] is reported as “no mice died”. Moreover, the “concentration in the lysosomal fraction” value in series [2] was found to be 13 µM. Also, in series [2], the “concentration in the whole cell homogenate” value amounted to 8 µM. In addition, the Lysotracker-positive puncta result in [3] (10 μM) was “not observed”; in series [3] (100 μM), “significant decrease”. For the same compound, the “acidic vesicles (acridine orange)” value in series [4] is given as “dose-dependent accumulation of acidic vesicles”. Further, the GFP-LC3 punctate fluorescence result was “observed in a minority of cells” in [5] (1 μM), “numerous small puncta” in series [5] (10 μM) and “larger dense puncta” in series [5] (100 μM). Also, in [6], the “LC3II/LC3I ratio in bafilomycin treated cells compared to control cells” value is recorded as “did not demonstrate an increase”. Also, the “increase in AV/cell compared to control treated tumors” value in series [7] came to 3 fold. The compound further yielded an IC50 in series [8] of 15 to 42 µM.
As to `CN(CCN)CCNc1ccnc2cc(Cl)ccc12` [Lys02], the IC50 in series [8] fell in the range of 35 to 91 µM.
On the same count and under the same terms, in the case of `COc1ccc2c(NCCN(C)CCNc3ccnc4cc(OC)ccc34)ccnc2c1` [Lys03] it was 24 to 53 µM.
As for `Clc1ccc2c(NCCOCCOCCNc3ccnc4cc(Cl)ccc34)ccnc2c1` [Lys04], the “dose-response relationship / potency in LC3 autophagy assay” value in series [9] was “intermediate potency”. The same compound gave an IC50 in [8] of 10 to 17 µM.
